Measured values published in patent publication US11952362B2, “Compositions and methods for treating epigenetic disease” (The Regents of the University of California, priority 2018, dated 2024).
Structures can show the parent of a compound that is named as a salt.

Assays:
TNBS colitis = TNBS colitis in mice; assay type: in vivo; details: i.c. administration, 50 mg/kg daily for 5 days, day 4, vs vehicle-treated mice
Experimental: Male C57BL/6J mice 8-10 weeks old were purchased from The Jackson Laboratory (Sacramento, CA, USA). Mice were housed 4 per cage, maintained on a 12:12 hour light-dark cycle and given access to food and water ad libitum. Following an acclimatization period of 3 to 5 days, trinitrobenzene sulfonic acid (TNBS, Millipore Sigma, St. Louis, MO, USA) colitis was induced by intracolonic (i.c.) injection of 0.05 ml TNBS solution (5 mg in 40% ethanol) via a polyethylene cannula (BD Intramedic PE-20 tubing, Thermo Fisher Scientific, Santa Clara, CA, USA) inserted 3.5 cm from the anal verge under isoflurane anesthesia (4% in O2 induction, 2.5-3% maintenance). Control mice received an injection of 40% ethanol (0.05 ml, i.c.). To test the effectiveness of the HDAC analogs, mice received a daily injection (0.1 ml, i.c.) of a selective HDAC class II inhibitor analog (50 mg/kg MJK001-013) or vehicle (5% dimethyl sulfoxide, Millipore Sigma) beginning one day prior to TNBS colitis induction (day −1) for a period of 5 days. Separate groups of mice received HDAC inhibitors or vehicle administered by daily oral gavage (50 mg/kg, 0.25 ml, p.o.). All analogs tested were first dissolved in dimethyl sulfoxide (DMSO) with rapid vortexing and subsequent dilution to 5% in sterile phosphate buffered saline (PBS; Gibco, Thermo Fisher Scientific). Vehicle contained 5% DMSO in sterile PBS. Prior to use, all solids were stored in amber (light-blocking) storage vials at 4° C. On the first day of administration, stock solutions were prepared, aliquoted and stored at −20° C. for daily use. Upon thawing, each aliquot was vortexed prior to intracolonic injection (via a polyethylene cannula) or oral gavage (20 ga×38 mm, Instech, Thermo Fisher Scientific). Following all in vivo experiments, animals were euthanized on day 4 by CO2 inhalation and cervical dislocation and the distal colons removed for further study.
Disease severity was assessed by weight loss and measurement of colon length and determination of clinical and histological damage scores on day 4 of the protocol. Briefly, clinical scores were calculated on a scale of 0-3 for degree of weight loss, bleeding, stool consistency and presence of rectal prolapse. Sections of colon (5 μm) fixed in 10% formalin, paraffin-embedded and stained with hematoxylin and eosin (H&E) were used for histological scoring using an AxioImager. Z1 microscope equipped with AxioVision software version 4.6 (Zeiss, Jena, Germany). Scoring was performed by two independent investigators blinded to the treatment conditions and resulting scores averaged. Scores were assigned based on the degree of crypt damage (0-4), polymorphonuclear neutrophil (PMN) infiltrate (0-3), erosion (0-3), and edema (0-3).
Statistical analyses were performed using GraphPad Prism (Version 5.0a; GraphPad Software, La Jolla, CA, USA). Differences were determined by unpaired t-test, 1-way analysis of variance, or a 2-way analysis of variance with Tukey's post-test. A p value <0.05 was considered to be statistically significant. Data presented are means±SEM for n animals.
Novel chemical HDAC inhibitors were developed aiming to target specific isoforms of the HDAC Class IIA members. Overall, as shown above, compounds have been synthesized, named MJK-001, -002, -003, -004, -005, -006, -007, -008, -009, -010, -011, -012 & -013. The effect of selective HDAC class IIA isoform inhibition during development of colitis in mice in vivo during TNBS administration was assessed. This mouse model is known to recapitulate many features of human Crohn's Disease. Mice received either an intracolonic (i.c.) injection or oral delivery (p.o.) of the MJK compounds once daily for a period of 5 days and health status, weight loss, and disease activity were monitored. Mice (male C57BL/6J, 8-10 wks old) are weighed and monitored daily. On the final day, blood, feces, and colonic samples for RNA, protein and histology are collected for downstream analysis. […]

[1] = Water solubility of MJK compounds; assay type: physicochemical
Source text: Solubility of MJK compounds: The development of an oral formulation for patients with auto-immune diseases, including Crohn's Disease, is preferential and less expensive, avoiding the need of hospitalization in comparison to the intracolonic (enema) administration. Thus, the water solubility and physical properties of the MJK compounds were examined. […] MJK-008 is the highest soluble MJK compound.

[2] = listed as MJK-013, hydrochloride, 50 mg/kg
[3] = listed as MJK-005, hydrochloride, 50 mg/kg

For `Cn1c(/C=C/C(=O)NO)ccc1/C=C/C(=O)c1cccnc1` [MJK009, (E)-N-Hydroxy-3-(1-methyl-5-((E)-3-oxo-3-(pyridin-3-yl)prop-1-en-1-yl)-1H-pyrrol-2-yl)ac-rylamid p-toluenesulfonic acid salt], the clinical score (TNBS colitis; 50 mg/kg) was “♦”, the colon length (TNBS colitis; 50 mg/kg) was “ns” and the clinical score (TNBS colitis; listed as MJK-009, 50 mg/kg) was “reduction in clinical scoring”. For the same compound, the colon length (TNBS colitis; listed as MJK-009, 50 mg/kg) was “did not alter colon length” and the Solubility score [1] was “highest solubility”.

In the case of `Cn1c(/C=C/C(=O)NO)ccc1/C=C/C(=O)c1ccco1` [MJK012, (E)-3-(5-((E)-3-(Furan-2-yl)-3-oxoprop-1-en-1-yl)-1-methyl-1H-pyrrol-2-yl)-N-hydroxyacrylamide], the clinical score (TNBS colitis; 50 mg/kg) is reported as “ns”, the colon length (TNBS colitis; 50 mg/kg) is reported as “ns” and the clinical score (TNBS colitis; listed as MJK-012, 50 mg/kg) is reported as “no significant differences”. For the same compound, the colon length (TNBS colitis; listed as MJK-012, 50 mg/kg) was “no significant differences”.

For `Cn1c(/C=C/C(=O)NO)ccc1/C=C/C(=O)c1cccc(Cl)c1` [MJK003, (E)-3-(5-((E)-3-(3-chlorophenyl)-3-oxoprop-1-en-1-yl)-1-methyl-1H-pyrrol-2-yl)-N-hydrox-yacrylamide], the clinical score (TNBS colitis; 50 mg/kg) was “♦♦”, the colon length (TNBS colitis; 50 mg/kg) was “♦” and the histological score (TNBS colitis; 50 mg/kg) was “did not yield significant differences and ns”. For the same compound, the clinical score (TNBS colitis; listed as MJK-003, 50 mg/kg) was “statistical significance in the reduction of the clinical score” and the colon length (TNBS colitis; listed as MJK-003, 50 mg/kg) was “increase of colon length”.

For `Cn1c(/C=C/C(=O)NO)ccc1/C=C/C(=O)c1ccccn1` [MJK010, (E)-N-Hydroxy-3-(1-methyl-5-((E)-3-oxo-3-(pyridin-2-yl)prop-1-en-1-yl)-1H-pyrrol-2-yl)acrylamide], the clinical score (TNBS colitis; 50 mg/kg) was “ns”, the colon length (TNBS colitis; 50 mg/kg) was “ns” and the clinical score (TNBS colitis; listed as MJK-010, 50 mg/kg) was “no significant differences”. For the same compound, the colon length (TNBS colitis; listed as MJK-010, 50 mg/kg) was “no significant differences”.

With `Cl.Cn1c(/C=C/C(=O)NO)ccc1/C=C/C(=O)c1cnccn1` [MJK013, (E)-N-Hydroxy-3-(1-methyl-5-((E)-3-oxo-3-(pyrazin-2-yl)prop-1-en-1-yl)-1H-pyrrol-2-yl)acrylamide hydrochloride] the clinical score (TNBS colitis; hydrochloride, 50 mg/kg) was “ns”, the colon length (TNBS colitis; hydrochloride, 50 mg/kg) was “ns” and the clinical score (TNBS colitis; [2]) was “no significant differences”. For the same compound, the colon length (TNBS colitis; [2]) was “no significant differences”.

In the case of `COc1cccc(C(=O)/C=C/c2ccc(/C=C/C(=O)NO)n2C)c1` [MJK002, (E)-N-hydroxy-3-(5-((E)-3-(3-methoxyphenyl)-3-oxoprop-1-en-1-yl)-1-methyl-1H-pyrrol-2-yl)acrylamide], the clinical score (TNBS colitis; 50 mg/kg) is reported as “♦♦♦”, the colon length (TNBS colitis; 50 mg/kg) is reported as “♦” and the histological score (TNBS colitis; 50 mg/kg) is reported as “did not yield significant differences and ns”. For the same compound, the clinical score (TNBS colitis; listed as MJK-002, 50 mg/kg) was “statistical significance in the reduction of the clinical score”, the colon length (TNBS colitis; listed as MJK-002, 50 mg/kg) was “increase of colon length” and the Solubility score [1] was “more soluble than MJK-001 and MJK-003”.

With `Cl.Cn1c(/C=C/C(=O)NO)ccc1/C=C/C(=O)c1ccsc1` [MJK005, (E)-N-hydroxy-3-(1-methyl-5-((E)-3-oxo-3-(thiophen-3-yl)prop-1-en-1-yl)-1H-pyrrol-2-yl)acrylamide hydrochloride] the clinical score (TNBS colitis; hydrochloride, 50 mg/kg) was “♦♦♦”, the colon length (TNBS colitis; hydrochloride, 50 mg/kg) was “ns” and the clinical score (TNBS colitis; [3]) was “reduction in clinical scoring”. The colon length (TNBS colitis; [3]) was “did not alter colon length”.

For `Cn1c(/C=C/C(=O)NO)ccc1/C=C/C(=O)c1ccncc1` [MJK011, (E)-N-hydroxy-3-(1-methyl-5-((E)-3-oxo-3-(pyridin-4-yl)prop-1-en-1-yl)-1H-pyrrol-2-yl)ac-rylamide], the clinical score (TNBS colitis; 50 mg/kg) was “♦♦♦”, the colon length (TNBS colitis; 50 mg/kg) was “ns” and the clinical score (TNBS colitis; listed as MJK-011, 50 mg/kg) was “reduction in clinical scoring”. For the same compound, the colon length (TNBS colitis; listed as MJK-011, 50 mg/kg) was “did not alter colon length” and the Solubility score [1] was “worst solubility”.

For `Cn1cccc1C(=O)/C=C/c1ccc(/C=C/C(=O)NO)n1C` [MJK007, (E)-N-Hydroxy-3-(1-methyl-5-((E)-3-(1-methyl-1H-pyrrol-2-yl)-3-oxoprop-1-en-1-yl)-1H-pyrrol-2-yl)acrylamide], the clinical score (TNBS colitis; 50 mg/kg) was “ns”, the colon length (TNBS colitis; 50 mg/kg) was “ns” and the clinical score (TNBS colitis; listed as MJK-007, 50 mg/kg) was “no significant differences”. The colon length (TNBS colitis; listed as MJK-007, 50 mg/kg) was “no significant differences”.
